Values quoted from earlier work, collected in US8536188B2, “Dosing regimens for treatment of proliferative disorders comprising administration of sapacitabine” (Cyclacel Limited, priority 2007, dated 2013).
Each block holds one compound with its values, some of them ahead of it.

Key:
[1] = test system: human tumour cells from various organs
cytidine deaminase = cytidine deaminase (Homo sapiens, UniProt P32320); conditions: compared with ara-C
CTCL = CTCL patients
colon cancer = conditions: model of colon cancer
[2] = phase I, patients with a variety of cancers
[3] = single dose in rodents; repeat dose up to 3 months in mice and dogs
[4] = in vivo
[5] = test system: ara-C-resistant tumour cell lines
[6] = test system: cancer cell lines, including those lacking deoxycytidine kinase; conditions: variety of cancer cell lines
NSCLC = conditions: 10 mg/m^2 intravenously over 30 minutes every three weeks

cytidine deaminase, sequence (P32320 whole entry, species assumed): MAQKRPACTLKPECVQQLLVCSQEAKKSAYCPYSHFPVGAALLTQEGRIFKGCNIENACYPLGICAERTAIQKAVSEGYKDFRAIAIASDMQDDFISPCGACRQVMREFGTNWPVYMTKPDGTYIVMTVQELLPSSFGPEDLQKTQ

substrate of cytidine deaminase (cytidine deaminase): weak substrate
Compound: N#C[C@H]1[C@H](O)[C@@H](CO)O[C@H]1n1ccc(N)nc1=O [CNDAC, 2′-C-Cyano-2′-deoxy-β-D-arabino-pentafuranosylcytosine]
activity against human tumour cells [1]: broad spectrum of activity

Compound: N#CC1C(O)C(COP(=O)(O)OP(=O)(O)OP(=O)(O)O)OC1n1ccc(N)nc1=O (centres unmarked) [CNDACTP, CNDAC-triphosphate]
inhibition of DNA polymerase (DNA polymerase): potent inhibition

Compound: Nc1ccn([C@@H]2O[C@H](CO)[C@@H](O)C2(F)F)c(=O)n1 [Gemcitabine, gemcitabine]
response rate (CTCL): 60-70%

Compound: CCCCCCCCCCCCCCCC(=O)Nc1ccn([C@@H]2O[C@H](CO)[C@@H](O)[C@@H]2C#N)c(=O)n1 [sapacitabine, 2′-cyano-2′-deoxy-N^4-palmitoyl-1-β-D-arabinofuranosylcytosine]
anticancer activity (colon cancer): strong anticancer activity
increasing survival, compared with gemcitabine or 5-FU (colon cancer): superior to either gemcitabine or 5-FU
preventing the spread of colon cancer metastases to the liver, compared with gemcitabine or 5-FU (colon cancer): superior to either gemcitabine or 5-FU
dose limiting toxicity [2]: myelosuppression
tolerability [2]: well tolerated
activity against human tumour cells [1]: broad spectrum of activity
effect on tumour xenografts (human tumour xenograft; gastric, mammary, lung, colorectal and hepatic tumour xenografts): tumour regressions were observed
antitumour activity compared with 5′-DFUR and gemcitabine (human tumour xenograft; human xenografts of poorly differentiated gastric adenocarcinoma): much more potent antitumour activity than 5′-DFUR and gemcitabine
antitumour activity in human tumour xenograft models (human tumour xenograft; variety of tumours): active against a variety of tumours
activity in vivo against resistant P388 leukemia cell lines (P388 leukemia; P388 resistant to mitomycin C, vincristine, 5-FU or cisplatin): active
antitumour activity compared with 5′-DFUR and gemcitabine (P388 leukemia; mouse P388 leukemia model): much more potent antitumour activity than 5′-DFUR and gemcitabine
major toxicities [3]: hematopoietic, gastrointestinal, and testicular
oral bioavailability [4]: good
cross-resistance to ara-C-resistant tumour cell lines [5]: partial cross-resistance
cytotoxicity of the parent drug [6]: cytotoxic

Compound: Nc1ccn([C@@H]2CO[C@H](CO)O2)c(=O)n1 [troxacitabine]
activity in NSCLC (NSCLC): little activity
